In brackets after ≈: the same amount, converted by molar mass.
Key:
Type in all cases: functional
[1] = test system: Streptococcus pneumoniae; assay: Antibacterial activity against penicillin-, quinolone-resistant and macrolide-susceptible Streptococcus pneumoniae HMC 1058 harboring S79F, K137N mutation in quinolone-resistant determining regions of ParC gene and 460V mutation in QRDR of ParE gene by broth microdilution method
[2] = test system: Streptococcus pneumoniae; assay: Antibacterial activity against penicillin-resistant and quinolone-susceptible Streptococcus pneumoniae HMC 228 expressing ermB by broth microdilution method
[3] = test system: Streptococcus pneumoniae; assay: Antibacterial activity against penicillin-resistant and quinolone-susceptible Streptococcus pneumoniae HMC 3583 expressing mefA by broth microdilution method
[4] = test system: Streptococcus pneumoniae; assay: Antibacterial activity against penicillin-, quinolone-resistant Streptococcus pneumoniae HMC 1541 harboring mutation in L4 protein by broth microdilution method
[5] = test system: Streptococcus pneumoniae; assay: Antibacterial activity against penicillin- and quinolone-susceptible Streptococcus pneumoniae HMC 5055 expressing mefA after 50 passages by broth microdilution method
[6] = test system: Streptococcus pneumoniae; assay: Antibacterial activity against penicillin-, macrolide- and quinolone-susceptible Streptococcus pneumoniae HMC 63 after 50 passages by broth microdilution method
[7] = test system: Streptococcus pneumoniae; assay: Antibacterial activity against quinolone-susceptible and penicillin-intermediate Streptococcus pneumoniae HMC 5048 expressing mefA after 50 passages by broth microdilution method
[8] = test system: Streptococcus pneumoniae; assay: Antibacterial activity against macrolide-, quinolone-susceptible and penicillin-intermediate Streptococcus pneumoniae HMC 99 after 50 passages by broth microdilution method
[9] = test system: Streptococcus pneumoniae; assay: Antibacterial activity against macrolide-, quinolone-susceptible and penicillin-intermediate Streptococcus pneumoniae HMC 100 after 50 passages by broth microdilution method
[10] = test system: Streptococcus pneumoniae; assay: Antibacterial activity against penicillin-resistant and quinolone-susceptible Streptococcus pneumoniae HMC 3583 expressing mefA after 50 passages by broth microdilution method
[11] = test system: Streptococcus pneumoniae; assay: (§1) Antibacterial activity against penicillin-, macrolide-susceptible and quinolone-resistant Streptococcus pneumoniae HMC 1074 harboring S81F mutation in quinolone-resistant determining regions of GyrA gene, S79F mutation in QRDR of ParC gene and I460V mutation in QRDR of ParE gene after 50 passages by broth microdilution method
[12] = test system: Streptococcus pneumoniae; assay: (§2) Antibacterial activity against penicillin-, macrolide- and quinolone-susceptible Streptococcus pneumoniae HMC 63 harboring S81F mutation in quinolone-resistant determining regions of GyrA gene, D83Y mutation in QRDR of ParC gene and I460V mutation in QRDR of ParE gene after 34 passages with gemifloxacin measured after 10 daily antibiotic-free subculturing by multi-step resistance selection technique
[13] = test system: Streptococcus pneumoniae; assay: (§3) Antibacterial activity against macrolide-, quinolone-susceptible and penicillin-intermediate Streptococcus pneumoniae HMC 99 harboring S81Y and S79Y mutation in quinolone-resistant determining regions of GyrA and ParC genes respectively after 41 passages with moxifloxacin measured after 10 daily antibiotic-free subculturing by multi-step resistance selection technique
[14] = test system: Streptococcus pneumoniae; assay: as §3, with “100” for “99”, “42” for “41”, “levofloxacin” for “moxifloxacin”
[15] = test system: Streptococcus pneumoniae; assay: as §3, with “100” for “99”, “S81Y” for “S81Y and S79Y”, “gene” for “and ParC genes respectively”, “22” for “41”
[16] = test system: Streptococcus pneumoniae; assay: as §3, with “100” for “99”, “harboring” for “harboring S81Y and”, “of” for “of GyrA and”, “gene” for “genes respectively”, “34” for “41”, “gemifloxacin” for “moxifloxacin”
[17] = test system: Streptococcus pneumoniae; assay: as §2, with “penicillin-resistant” for “penicillin-, macrolide-”, “228 expressing ermB and” for “63”, “D83N” for “D83Y”, “28” for “34”, “DC-159a” for “gemifloxacin”
[18] = test system: Streptococcus pneumoniae; assay: as §2, with “penicillin-resistant” for “penicillin-, macrolide-”, “228 expressing ermB and” for “63”, “S79Y” for “D83Y”, “36” for “34”, “moxifloxacin” for “gemifloxacin”
[19] = test system: Streptococcus pneumoniae; assay: as §2, with “penicillin-resistant” for “penicillin-, macrolide-”, “3583 expressing mefA and” for “63”, “D83N” for “D83Y”, “49” for “34”, “DC-159a” for “gemifloxacin”
[20] = test system: Streptococcus pneumoniae; assay: (§4) Antibacterial activity against penicillin-resistant and quinolone-susceptible Streptococcus pneumoniae HMC 3583 expressing mefA and harboring S81F mutation in quinolone-resistant determining regions of GyrA gene and I460V, D435N mutation in QRDR of ParE gene after 46 passages with gatifloxacin measured after 10 daily antibiotic-free subculturing by multi-step resistance selection technique
[21] = test system: Streptococcus pneumoniae; assay: as §4, with “I460V” for “S81F mutation in quinolone-resistant determining regions of GyrA gene and I460V, D435N”, “41” for “46”, “gemifloxacin” for “gatifloxacin”
[22] = test system: Streptococcus pneumoniae; assay: Antibacterial activity against penicillin-susceptible Streptococcus pneumoniae ATCC 49619 by agar dilution method
[23] = test system: Streptococcus pneumoniae; assay: Antibacterial activity against penicillin-intermediate Streptococcus pneumoniae […] by agar dilution method
[24] = test system: Streptococcus pneumoniae; assay: Antibacterial activity against penicillin-resistant Streptococcus pneumoniae […] by agar dilution method
[25] = test system: Streptococcus pneumoniae; assay: Antibacterial activity against azithromycin-susceptible Streptococcus pneumoniae ATCC 49619 by agar dilution method
[26] = test system: Streptococcus pneumoniae; assay: Antibacterial activity against azithromycin-resistant Streptococcus pneumoniae […] by agar dilution method
[27] = test system: Streptococcus pneumoniae; assay: Antibacterial activity against quinolone-susceptible Streptococcus pneumoniae ATCC 49619 by agar dilution method
[28] = test system: Streptococcus pneumoniae; assay: Antibacterial activity against quinolone-resistant Streptococcus pneumoniae […] by agar dilution method
[29] = test system: Streptococcus pneumoniae; assay: Antibacterial activity against penicillin-susceptible, quinolone-resistant Streptococcus pneumoniae 1072 expressing ermB and harboring S81F mutation in quinolone-resistant determining regions of GyrA gene, S79Y mutation in QRDR of ParC gene and I460V mutation in QRDR of ParE gene by broth microdilution method
[30] = test system: Streptococcus pneumoniae; assay: Antibacterial activity against penicillin-, macrolide- and quinolone-susceptible Streptococcus pneumoniae HMC 63 by broth microdilution method
[31] = test system: Streptococcus pneumoniae; assay: as §1, with “gene” for “gene after 50 passages”
[32] = test system: Streptococcus pneumoniae; assay: Antibacterial activity against penicillin- and quinolone-susceptible Streptococcus pneumoniae HMC 5055 expressing mefA by broth microdilution method
[33] = test system: Streptococcus pneumoniae; assay: Antibacterial activity against macrolide-, quinolone-susceptible and penicillin-intermediate Streptococcus pneumoniae HMC 100 by broth microdilution method
[34] = test system: Streptococcus pneumoniae; assay: Antibacterial activity against macrolide-, quinolone-susceptible and penicillin-intermediate Streptococcus pneumoniae HMC 99 by broth microdilution method
[35] = test system: Streptococcus pneumoniae; assay: Antibacterial activity against quinolone-susceptible and penicillin-intermediate Streptococcus pneumoniae HMC 441 expressing ermB by broth microdilution method
[36] = test system: Streptococcus pneumoniae; assay: Antibacterial activity against quinolone-susceptible and penicillin-intermediate Streptococcus pneumoniae HMC 5048 expressing mefA by broth microdilution method
[37] = test system: Streptococcus pneumoniae; assay: as §2, with “macrolide-susceptible” for “macrolide-”, “quinolone-resistant” for “quinolone-susceptible”, “1074” for “63”, “S81F, E85K” for “S81F”, “S79F” for “D83Y”, “27” for “34”
[38] = test system: Streptococcus pneumoniae; assay: as §4, with “228” for “3583”, “ermB” for “mefA”, “GyrA gene, S79Y mutation in QRDR of ParC” for “GyrA”, “I460V” for “I460V, D435N”, “38” for “46”
[39] = test system: Streptococcus pneumoniae; assay: as §4, with “GyrA gene, D83N mutation in QRDR of ParC” for “GyrA”, “I460V” for “I460V, D435N”, “44” for “46”, “levofloxacin” for “gatifloxacin”

SMILES: CC[C@H]1OC(=O)[C@H](C)[C@@H](O[C@H]2C[C@@](C)(OC)[C@@H](O)[C@H](C)O2)[C@H](C)[C@@H](O[C@@H]2O[C@H](C)C[C@H](N(C)C)[C@H]2O)[C@](C)(O)C[C@@H](C)CN(C)[C@H](C)[C@@H](O)[C@]1(C)O [AZITHROMYCIN]
- MIC [1]: 0.06 µg/mL (≈ 0.0801 µM)
- MIC [2]: > 64 µg/mL
- MIC [3]: 2 µg/mL (≈ 2.67 µM)
- MIC [4]: > 64 µg/mL
- MIC [5]: 8 µg/mL (≈ 10.7 µM)
- MIC [6]: 0.06 µg/mL (≈ 0.0801 µM)
- MIC [7]: 8 µg/mL (≈ 10.7 µM)
- MIC [8]: 0.06 µg/mL (≈ 0.0801 µM)
- MIC [9]: 0.03 µg/mL (≈ 0.0401 µM)
- MIC [10]: 4 µg/mL (≈ 5.34 µM)
- MIC [11]: 0.03 µg/mL (≈ 0.0401 µM)
- MIC [12]: 0.03 µg/mL (≈ 0.0401 µM)
- MIC [13]: 0.016 µg/mL (≈ 0.0214 µM)
- MIC [14]: 0.03 µg/mL (≈ 0.0401 µM)
- MIC [15]: 0.03 µg/mL (≈ 0.0401 µM)
- MIC [16]: 0.06 µg/mL (≈ 0.0801 µM)
- MIC [17]: > 64 µg/mL
- MIC [18]: > 64 µg/mL
- MIC [19]: 0.25 µg/mL (≈ 0.334 µM)
- MIC [20]: 0.25 µg/mL (≈ 0.334 µM)
- MIC [21]: 0.25 µg/mL (≈ 0.334 µM)
- MIC50 [22]: 0.12 µg/mL (≈ 0.16 µM)
- MIC90 [22]: > 64 µg/mL
- MIC50 [23]: 0.12 µg/mL (≈ 0.16 µM)
- MIC90 [23]: > 64 µg/mL
- MIC50 [24]: 2 µg/mL (≈ 2.67 µM)
- MIC50 [25]: 0.12 µg/mL (≈ 0.16 µM)
- MIC90 [25]: 0.12 µg/mL (≈ 0.16 µM)
- MIC50 [26]: > 64 µg/mL
- MIC50 [27]: 1 µg/mL (≈ 1.34 µM)
- MIC90 [27]: > 64 µg/mL
- MIC50 [28]: 0.06 µg/mL (≈ 0.0801 µM)
- MIC [29]: > 64 µg/mL
- MIC [30]: 0.016 µg/mL (≈ 0.0214 µM)
- MIC [31]: 0.03 µg/mL (≈ 0.0401 µM)
- MIC [32]: 2 µg/mL (≈ 2.67 µM)
- MIC [33]: 0.03 µg/mL (≈ 0.0401 µM)
- MIC [34]: 0.016 µg/mL (≈ 0.0214 µM)
- MIC [35]: > 64 µg/mL
- MIC [36]: 4 µg/mL (≈ 5.34 µM)
- MIC [37]: 0.016 µg/mL (≈ 0.0214 µM)
- MIC [38]: 2 µg/mL (≈ 2.67 µM)
- MIC [39]: 2 µg/mL (≈ 2.67 µM)

From ChEMBL document CHEMBL1151449, “In vitro activity of DC-159a, a new broad-spectrum fluoroquinolone, compared with that of other agents against drug-susceptible and -resistant pneumococci” (2008)
